Data: patent US20170296682A1, “DERIVATIVES OF DIBENZOTHIOPHENE IMAGING OF alpha-7 NICOTINIC ACETYLCHOLINE RECEPTORS” (THE JOHNS HOPKINS UNIVERSITY, priority 2015, published 2017)
Values joined by “and” are separate entries in the source; they are usually repeats but may differ in a detail not shown here. Identical values can stand only once. Like-named read-outs stand apart in the source and are kept apart here.

Experiments:
α7-nAChR [1] = target: T1, α7-nAChR (Homo sapiens, UniProt P36544); conditions: read-out: α7-nAChR, Ki, cited from earlier work
α7-nAChR [2] = target: T2, α7-nAChR (Mus musculus, UniProt P49582); conditions: in vivo; cited from earlier work
a7-nAChR = conditions: baboon
α7-nAChR [3] = target: T1, α7-nAChR; conditions: read-out: Ki α7-nAChR (literature); cited from earlier work
α7-nAChR [4] = target: T2, α7-nAChR; conditions: drugs 2 mg/kg sc, 10 min before radiotracer, 90 min
α7-nAChR [5] = target: T2, α7-nAChR; parameters: The brains were rapidly removed and dissected on ice; tissue Charles River Laboratories; host or cells: brain of live male CD-1 mice; species or system CD-1 mice; conditions: in vivo
α7-nAChR [6] = target: α7-nAChR (Rattus norvegicus, UniProt Q05941); assay: biochemical; type: binding; conditions: read-out: Ki α7-nAChR (reference compounds)
[7] = previously published values, varied assay conditions

T1 sequence (P36544 23-502): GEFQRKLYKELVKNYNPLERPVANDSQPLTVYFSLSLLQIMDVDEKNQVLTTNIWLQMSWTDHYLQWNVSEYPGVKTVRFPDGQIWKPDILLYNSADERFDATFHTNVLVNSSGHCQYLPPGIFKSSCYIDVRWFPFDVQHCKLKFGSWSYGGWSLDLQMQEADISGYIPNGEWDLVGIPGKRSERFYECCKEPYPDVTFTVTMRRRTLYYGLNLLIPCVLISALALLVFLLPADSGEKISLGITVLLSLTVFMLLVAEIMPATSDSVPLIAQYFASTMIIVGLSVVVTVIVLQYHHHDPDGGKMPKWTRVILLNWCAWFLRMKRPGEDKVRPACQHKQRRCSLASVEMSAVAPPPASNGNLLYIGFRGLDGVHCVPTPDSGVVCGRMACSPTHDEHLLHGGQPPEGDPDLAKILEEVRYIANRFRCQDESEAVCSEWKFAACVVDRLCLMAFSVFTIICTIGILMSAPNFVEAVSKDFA
T2 sequence (P49582 23-502): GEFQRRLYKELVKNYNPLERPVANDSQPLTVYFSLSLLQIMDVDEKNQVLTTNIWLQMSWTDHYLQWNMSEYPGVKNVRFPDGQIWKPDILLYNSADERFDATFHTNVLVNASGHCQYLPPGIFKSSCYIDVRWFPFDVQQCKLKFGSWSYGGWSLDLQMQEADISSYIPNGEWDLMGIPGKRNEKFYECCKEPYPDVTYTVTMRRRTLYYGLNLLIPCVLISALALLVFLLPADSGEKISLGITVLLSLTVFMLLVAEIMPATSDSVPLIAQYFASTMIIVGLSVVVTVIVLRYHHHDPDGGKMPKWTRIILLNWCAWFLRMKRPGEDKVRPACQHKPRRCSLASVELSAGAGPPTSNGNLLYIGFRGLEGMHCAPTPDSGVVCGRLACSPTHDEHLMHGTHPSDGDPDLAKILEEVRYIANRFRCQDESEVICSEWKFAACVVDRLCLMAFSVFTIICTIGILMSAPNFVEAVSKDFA
Sequence of α7-nAChR (Rattus norvegicus, UniProt Q05941) (Q05941 23-502): as the sequence (P49582 23-502) above, with T402A counted along it

SMILES: [125I]c1occc1-c1cnc2c(c1)CC1(CN3CCC1CC3)O2 (stereo not shown)
- Ki (α7-nAChR [1]): 0.26 nM
- BPND in cortex, Mice (α7-nAChR [2]): 0.6

SMILES: O=[11C](Nc1ccc(Br)cc1)OC1CN2CCC1CC2 (stereo not shown)
- BPND in cortex, Mice (α7-nAChR [2]): ~0.3

SMILES: [11CH3]N1CC2CN(c3ccc(-c4ccccc4)nn3)CC2C1 (stereo not shown)
- Ki (α7-nAChR [1]): 10.8 nM
- BPND in cortex, Mice (α7-nAChR [2]): 0.2-0.5

SMILES: [11CH3]N1CC2CN(c3ccc4c(c3)C(=O)C3C=CC=CC3O4)CC2C1 (stereo not shown)
- Ki (α7-nAChR [1]; [7]): 11 nM

SMILES: [11CH3]N1CC2CN(c3ccc(-c4ccc5[nH]ccc5c4)nn3)CC2C1 (stereo not shown)
- BPND in cortex, Mice (α7-nAChR [2]): 0.5

SMILES: [11CH3]c1ccc(OC(=O)N2CCN3CCC2CC3)cc1
- BPND in cortex, Mice (α7-nAChR [2]): ~0.6

SMILES: [18F]CCn1ccc2ccc(-c3nnc(N4CCN5CCC4CC5)o3)cc21
- Ki (α7-nAChR [1]): 2.5 nM

SMILES: O=C(Oc1ccc([76Br])cc1)N1CCN2CCC1CC2
- Ki (α7-nAChR [1]; [7]): 24.9 nM

SMILES: [11CH3]n1cccc1-c1nnc(N2CCN3CCC2CC3)o1
- Ki (α7-nAChR [1]): 2.2 nM

SMILES: [18F]c1ccc(-c2nnc(N3CCN4CCC3CC4)o2)cc1
- BPND in cortex, Mice (α7-nAChR [2]): 0.4

SMILES: [18F]c1ccccc1-c1cnc2c(c1)CC1(CN3CCC1CC3)O2 (stereo not shown)
- Ki (α7-nAChR [1]): 0.2 nM
- BPND in cortex, Mice (α7-nAChR [2]): 0.8

SMILES: [11CH3]N1CC2CN(c3ccc(-c4ccc5[nH]ccc5c4)nc3)CC21 (stereo not shown) [5-(5-(6-[(11)C]methyl-3,6-diazabicyclo[3.2.0]heptan-3-yl)pyridin-2-yl)-1H-indole]
- BPND in cortex, Mice (α7-nAChR [2]): 1.9

SMILES: O=C(Oc1ccc(Br)cc1)N1CCN2CCC1CC2 [Compound 1, reference compound]
- Mean occupancy of a7-nAChRs (a7-nAChR; dose of 0.5 mg/kg iv, individual VND values): 38%
- Mean occupancy of a7-nAChRs (a7-nAChR; dose of 0.5 mg/kg iv, mean VND value of 2 doses): 32.9%
- Mean occupancy of a7-nAChRs (a7-nAChR; dose of 5 mg/kg iv, individual VND values): 80.5%
- Mean occupancy of a7-nAChRs (a7-nAChR; dose of 5 mg/kg iv, mean VND value of 2 doses): 94.1%
- Ki (α7-nAChR [3]): 22 nM
- effect on accumulation of [18F]7a in mouse brain (α7-nAChR [4]): reduced accumulation of radioactivity
- blockade of [18F]7a accumulation in mouse brain (α7-nAChR [5]): dose dependent blockade in all regions studied

SMILES: O=S1(=O)c2ccccc2-c2ccc(N3CCN4CCC3CC4)cc21 [Compound 5, 3-(1,4-diazabicyclo[3.2.2]nonan-4-yl)dibenzo[b,d]thiophene 5,5-dioxide, reference compound]
- Ki (α7-nAChR [6]): 0.3 nM and 0.5 nM
- Ki (α7-nAChR [3]): 0.023 nM
- blockade of [18F]7c accumulation in mouse brain (α7-nAChR [5]): dose dependent blockade
